Test results reported in US8383581B2, “Short-chain peptides as parathyroid hormone (PTH) receptor agonist” (Cadila Healthcare Limited, priority 2009, dated 2013).
Where a SMILES comes first, the peptide text is derived from it. [ ]: non-standard residue; d: D form. ξ: configuration not given here. αMePhe(2,6-F2) = C[C@](N)(Cc1c(F)cccc1F)C(=O)O; ξαMePhe(2,6-F2) = CC(N)(Cc1c(F)cccc1F)C(=O)O; αMePhe(2-F) = C[C@](N)(Cc1ccccc1F)C(=O)O; ξαMePhe(2-F) = CC(N)(Cc1ccccc1F)C(=O)O; hArg = N=C(N)NCCCC[C@H](N)C(=O)O; ξαMeF = CC(N)(Cc1ccccc1)C(=O)O; Nle = CCCC[C@H](N)C(=O)O; ξαMeP = CC1(C(=O)O)CCCN1; Ac5c = NC1(C(=O)O)CCCC1; Ac3c = NC1(C(=O)O)CC1; Aib = CC(C)(N)C(=O)O

What was measured:
Assay type in all cases: in vitro ADME
[1] = Stability of peptides in human plasma; conditions: human, plasma; for metabolised at 24 h, 2 μM: pH 7.8
Experimental: (§1) b) Stability of Peptides in Human Plasma, Simulated Gastric Fluid, Intestinal Fluid and Liver Microsomes (Ex-Vivo): Different short-chain peptides (final concentration 2 μM) were incubated with either pooled human plasma (7.5 μL) or simulated gastric fluid (pH 1.5; composition HCl, NaCl and Pepsin) or simulated intestinal fluid (pH 7.5) or human liver microsomes, for 0, 2, 4, 6, 12 and 24 h (37° C.; 50 mM triethanolamine-HCl buffer; pH 7.8). Concentrations of human plasma/simulated gastric fluid/simulated intestinal fluid/human liver microsomes were selected in preliminary experiments to provide degradation of approximately 50% of PTH(1-34) within 1 h, therefore allowing time-dependent degradation to be viewed over 24 h. Reactions were terminated by the addition of TFA/H2O ([…], 10% (v/v)). The reaction products were then applied to a Vydac C18 analytical column (4.6×250-mm) and the major degradation fragment separated from intact short-chain peptides. The column was equilibrated with TFA/H20, at a flow rate of 1 mL/min. Using 0.1% (v/v) TFA in 70% acetonitrile/H2O, the concentration of acetonitrile in the eluting solvent was raised from 0% to 28% over 10 min and from 28% to 42% over 30 min. The absorbance was monitored at 206 nm using UV detector and peaks were collected manually prior to ESI-MS analysis. Area under the curve was measured for test peptides and their metabolites and percentage degradation were calculated at each time point over a period of 24 h. Stability study results of selected peptides, in human plasma, simulated gastric fluid, intestinal fluid and liver microsomes (in vitro) are listed in Table 4.

[2] = Stability of peptides in simulated gastric fluid (pH 1.5; HCl, NaCl and Pepsin); conditions: pH 1.5; for % degradation of peptides in 24 h when incubated with simulated gastric fluid: 2 μM; for half-life (t1/2) in simulated gastric fluid / half-life: simulated gi fluid
Experimental: as §1

[3] = Stability of peptides in simulated intestinal fluid (pH 7.5); conditions: pH 7.5; for half-life (t1/2) in simulated intestinal fluid / half-life: simulated gi fluid; for % degradation of peptides in 24 h when incubated with simulated intestinal fluid: 2 μM
Experimental: as §1

[4] = Stability of peptides in human liver microsomes; conditions: human, microsomes; for % degradation of peptides in 24 h when incubated with liver microsomes: 2 μM, pH 7.8
Experimental: as §1

SMILES	half-life [1]	metabolised at 24 h, 2 μM [1]	% degradation of peptides in 24 h when incubated with simulated gastric fluid [2]	half-life (t1/2) in simulated gastric fluid [2]	half-life (t1/2) in simulated intestinal fluid [3]	% degradation of peptides in 24 h when incubated with simulated intestinal fluid [3]	half-life [4]	% degradation of peptides in 24 h when incubated with liver microsomes [4]	half-life [2]	half-life [3]	half-life (t1/2) in liver microsomes [4]	half-life (t1/2) in human plasma [1]
CCCC[C@H](NC(=O)C(C)(Cc1ccccc1F)NC(=O)[C@H](CCC(N)=O)NC(=O)[C@@H](NC(=O)[C@H](CCC(=O)O)NC(=O)C(C)(C)NC(=O)[C@@H](NC(=O)C(C)(C)N)C(C)C)[C@@H](C)CC)C(=O)N[C@@H](Cc1c[nH]cn1)C(=O)N[C@@H](CCC(N)=O)C(=O)N[C@@H](CCCCNC(=N)N)C(=O)N1CCCC1(C)C(=O)N[C@@H](CCCCN)C(=O)NC(C)(Cc1ccccc1)C(N)=O (some centres unmarked) [Seq. ID. 25] (H-[Aib]V[Aib]EIQ[ξαMePhe(2-F)][Nle]HQ[hArg][ξαMeP]K[ξαMeF]-NH2)	8 h	75%	12%	(8) h	(6) h	46%	1 h	83%	–	–	–	–
CCCC[C@H](NC(=O)C(C)(Cc1ccccc1F)NC(=O)[C@H](CCC(N)=O)NC(=O)[C@@H](NC(=O)[C@H](CCC(=O)O)NC(=O)C1(NC(=O)[C@@H](NC(=O)C2(N)CCCC2)C(C)C)CCCC1)[C@@H](C)CC)C(=O)N[C@@H](Cc1c[nH]cn1)C(=O)N[C@@H](CCC(N)=O)C(=O)N[C@@H](CCCCNC(=N)N)C(=O)N1CCCC1(C)C(=O)N[C@@H](CCCCN)C(=O)NC(C)(Cc1ccccc1)C(N)=O (some centres unmarked) [Seq. ID. 34] (H-[Ac5c]V[Ac5c]EIQ[ξαMePhe(2-F)][Nle]HQ[hArg][ξαMeP]K[ξαMeF]-NH2)	8 h	70%	15%	(8) h	(6) h	41%	1 h	77%	–	–	–	–
CCCC[C@H](NC(=O)C(C)(Cc1c(F)cccc1F)NC(=O)[C@H](CCC(N)=O)NC(=O)[C@@H](NC(=O)[C@H](CCC(=O)O)NC(=O)C1(NC(=O)[C@@H](NC(=O)C2(N)CCCC2)C(C)C)CCCC1)[C@@H](C)CC)C(=O)N[C@@H](Cc1c[nH]cn1)C(=O)N[C@@H](CCC(N)=O)C(=O)N[C@@H](CCCCNC(=N)N)C(=O)N1CCCC1(C)C(=O)N[C@@H](CCCCN)C(=O)NC(C)(Cc1ccccc1)C(N)=O (some centres unmarked) [Seq. ID. 46] (H-[Ac5c]V[Ac5c]EIQ[ξαMePhe(2,6-F2)][Nle]HQ[hArg][ξαMeP]K[ξαMeF]-NH2)	> 24 h	0%	00%	–	–	00%	–	31%	> 24 h	> 24 h	(5) h	–
CCCC[C@H](NC(=O)C(C)(Cc1ccccc1F)NC(=O)[C@H](CCC(N)=O)NC(=O)[C@@H](NC(=O)[C@H](CCC(=O)O)NC(=O)C(C)(C)NC(=O)[C@@H](NC(=O)C(C)(C)N)C(C)C)[C@@H](C)CC)C(=O)N[C@@H](Cc1c[nH]cn1)C(=O)N[C@@H](CCC(N)=O)C(=O)N[C@@H](CCCCNC(=N)N)C(=O)N1CCCC1(C)C(=O)N[C@@H](CCCCN)C(=O)NC(C)(Cc1ccccc1F)C(N)=O (some centres unmarked) [Seq. ID. 56] (H-[Aib]V[Aib]EIQ[ξαMePhe(2-F)][Nle]HQ[hArg][ξαMeP]K[ξαMePhe(2-F)]-NH2)	> 24 h	0%	00%	–	–	00%	–	32%	> 24 h	> 24 h	(5) h	–
CCCC[C@H](NC(=O)C(C)(Cc1ccccc1F)NC(=O)[C@H](CCC(N)=O)NC(=O)[C@@H](NC(=O)[C@H](CCC(=O)O)NC(=O)C1(NC(=O)[C@@H](NC(=O)C(C)(C)N)C(C)C)CCCC1)[C@@H](C)CC)C(=O)N[C@@H](Cc1c[nH]cn1)C(=O)N[C@@H](CCC(N)=O)C(=O)N[C@@H](CCCCNC(=N)N)C(=O)N1CCCC1(C)C(=O)N[C@@H](CCCCN)C(=O)NC(C)(Cc1ccccc1F)C(N)=O (some centres unmarked) [Seq. ID. 62] (H-[Aib]V[Ac5c]EIQ[ξαMePhe(2-F)][Nle]HQ[hArg][ξαMeP]K[ξαMePhe(2-F)]-NH2)	> 24 h	0%	00%	–	–	00%	–	33%	> 24 h	> 24 h	(5) h	–
CCCC[C@H](NC(=O)C(C)(Cc1c(F)cccc1F)NC(=O)[C@H](CCC(N)=O)NC(=O)[C@@H](NC(=O)[C@H](CCC(=O)O)NC(=O)C(C)(C)NC(=O)[C@@H](NC(=O)C1(N)CC1)C(C)C)[C@@H](C)CC)C(=O)N[C@@H](Cc1c[nH]cn1)C(=O)N[C@@H](CCC(N)=O)C(=O)N[C@@H](CCCCNC(=N)N)C(=O)N1CCCC1(C)C(=O)N[C@@H](CCCCN)C(=O)NC(C)(Cc1ccccc1F)C(N)=O (some centres unmarked) [Seq. ID. 75] (H-[Ac3c]V[Aib]EIQ[ξαMePhe(2,6-F2)][Nle]HQ[hArg][ξαMeP]K[ξαMePhe(2-F)]-NH2)	–	78%	100%	–	–	100%	0.5 h	100%	0.5 h	0.5 h	–	(9) h

Now from value to compound:

half-life [1]	metabolised at 24 h, 2 μM [1]	% degradation of peptides in 24 h when incubated with simulated gastric fluid [2]	half-life (t1/2) in simulated gastric fluid [2]	half-life (t1/2) in simulated intestinal fluid [3]	% degradation of peptides in 24 h when incubated with simulated intestinal fluid [3]	half-life [4]	% degradation of peptides in 24 h when incubated with liver microsomes [4]	half-life [2]	half-life [3]	half-life (t1/2) in liver microsomes [4]	half-life (t1/2) in human plasma [1]	SMILES
–	77%	100%	–	–	100%	0.5 h	100%	0.5 h	0.5 h	–	(9) h	CCCC[C@H](NC(=O)[C@](C)(Cc1c(F)cccc1F)NC(=O)[C@H](CCC(N)=O)NC(=O)[C@@H](NC(=O)[C@H](CCC(=O)O)NC(=O)C(C)(C)NC(=O)[C@@H](NC(=O)C1(N)CCCC1)C(C)C)[C@@H](C)CC)C(=O)N[C@@H](Cc1c[nH]cn1)C(=O)N[C@@H](CCC(N)=O)C(=O)N[C@@H](CCCCNC(=N)N)C(=O)NC(C)(C)C(=O)N[C@@H](CCCCN)C(=O)N[C@@](C)(Cc1ccccc1F)C(N)=O [Seq. ID. 85] (H-[Ac5c]V[Aib]EIQ[αMePhe(2,6-F2)][Nle]HQ[hArg][Aib]K[αMePhe(2-F)]-NH2)
–	80%	100%	–	–	100%	0.5 h	100%	0.5 h	0.5 h	–	(9) h	CCCC[C@H](NC(=O)C(C)(Cc1ccccc1F)NC(=O)[C@H](CCC(N)=O)NC(=O)[C@@H](NC(=O)[C@H](CCC(=O)O)NC(=O)C(C)(C)NC(=O)[C@@H](NC(=O)C1(N)CC1)C(C)C)[C@@H](C)CC)C(=O)N[C@@H](Cc1c[nH]cn1)C(=O)N[C@@H](CCC(N)=O)C(=O)N[C@@H](CCCCNC(=N)N)C(=O)NC(C)(C)C(=O)N[C@@H](CCCCN)C(=O)NC(C)(Cc1c(F)cccc1F)C(N)=O (some centres unmarked) [Seq. ID. 95] (H-[Ac3c]V[Aib]EIQ[ξαMePhe(2-F)][Nle]HQ[hArg][Aib]K[ξαMePhe(2,6-F2)]-NH2)
> 24 h	0%	49%	–	–	00%	2 h	82%	4 h	> 24 h	–	–	CCCC[C@H](NC(=O)C(C)(Cc1ccccc1F)NC(=O)[C@H](CCC(N)=O)NC(=O)[C@@H](NC(=O)[C@H](CCC(=O)O)NC(=O)C1(NC(=O)[C@@H](NC(=O)C2(N)CCCC2)C(C)C)CCCC1)[C@@H](C)CC)C(=O)N[C@@H](Cc1c[nH]cn1)C(=O)N[C@@H](CCC(N)=O)C(=O)N[C@@H](CCCCNC(=N)N)C(=O)N1CCCC1(C)C(=O)N[C@@H](CCCCN)C(=O)NC(C)(Cc1c(F)cccc1F)C(N)=O (some centres unmarked) [Seq. ID. 100] (H-[Ac5c]V[Ac5c]EIQ[ξαMePhe(2-F)][Nle]HQ[hArg][ξαMeP]K[ξαMePhe(2,6-F2)]-NH2)
8 h	78%	12%	(8) h	(6) h	55%	1 h	79%	–	–	–	–	CCCC[C@H](NC(=O)C(C)(Cc1c(F)cccc1F)NC(=O)[C@H](CCC(N)=O)NC(=O)[C@@H](NC(=O)[C@H](CCC(=O)O)NC(=O)C1(NC(=O)[C@@H](NC(=O)C2(N)CCCC2)C(C)C)CCCC1)[C@@H](C)CC)C(=O)N[C@@H](Cc1c[nH]cn1)C(=O)N[C@@H](CCC(N)=O)C(=O)N[C@@H](CCCCNC(=N)N)C(=O)N[C@@H](C)C(=O)N[C@@H](CCCCN)C(=O)NC(C)(Cc1c(F)cccc1F)C(N)=O (some centres unmarked) [Seq. ID. 115] (H-[Ac5c]V[Ac5c]EIQ[ξαMePhe(2,6-F2)][Nle]HQ[hArg]AK[ξαMePhe(2,6-F2)]-NH2)
